Test results: patent US10214527B2, “Triazolopyridine inhibitors of myeloperoxidase” (priority 2015, dated 2019)

What follows are compounds tested against myeloperoxidase (MPO) (Homo sapiens (Human), UniProt P05164) (assay: MPO peroxidation assay (Amplex Red assay)). Settings: not given.
Type: biochemical

myeloperoxidase (MPO), sequence (P05164 49-745): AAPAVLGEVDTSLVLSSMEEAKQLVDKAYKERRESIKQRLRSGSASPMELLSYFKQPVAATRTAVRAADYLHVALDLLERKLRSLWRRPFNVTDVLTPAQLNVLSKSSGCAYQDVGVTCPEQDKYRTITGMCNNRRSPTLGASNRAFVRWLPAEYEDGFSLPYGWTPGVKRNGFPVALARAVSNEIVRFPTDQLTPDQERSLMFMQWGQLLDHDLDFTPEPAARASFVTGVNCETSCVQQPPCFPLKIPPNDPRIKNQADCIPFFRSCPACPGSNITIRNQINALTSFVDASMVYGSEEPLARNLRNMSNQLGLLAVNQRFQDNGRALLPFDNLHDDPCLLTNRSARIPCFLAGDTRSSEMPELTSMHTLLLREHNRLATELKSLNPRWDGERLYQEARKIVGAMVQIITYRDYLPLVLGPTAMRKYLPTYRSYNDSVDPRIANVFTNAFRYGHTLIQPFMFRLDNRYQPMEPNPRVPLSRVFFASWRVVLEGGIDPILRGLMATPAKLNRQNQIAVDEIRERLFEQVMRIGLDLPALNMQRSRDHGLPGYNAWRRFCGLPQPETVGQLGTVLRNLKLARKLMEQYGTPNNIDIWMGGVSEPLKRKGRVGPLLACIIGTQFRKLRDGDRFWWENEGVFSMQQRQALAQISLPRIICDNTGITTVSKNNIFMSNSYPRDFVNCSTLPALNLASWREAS

Row | SMILES | IC50 [nM]
1 | Nc1cc(Cc2cccc(Cl)c2)c2nn[nH]c2n1 [Example 2, 7-(3-chlorobenzyl)-3H-[1,2,3]triazolo [4,5-b]pyridin-5-amine] | 1 to 100
2 | Nc1cc(Cc2ccc3ccccc3c2)c2nn[nH]c2n1 [Example 6, 7-(naphthalen-2-ylmethyl)-3H-[1,2,3] triazolo[4,5-b]pyridin-5-amine] | 101 to 999
3 | COC(=O)c1cccc(Cc2cc(N)nc3[nH]nnc23)c1 [Example 7, Methyl 3-((5-amino-3H-[1,2,3]triazolo[4,5-b]pyridin-7-yl)methyl)benzoate] | 1 to 100
4 | Nc1cc(Cc2cccc(-c3ccccc3)c2)c2nn[nH]c2n1 [Example 17, 7-(Biphenyl-3-ylmethyl)-3H-[1,2,3]triazolo[4,5-b]pyridin-5-amine] | 1 to 100
5 | Nc1cc(Cc2ccccc2F)c2nn[nH]c2n1 [Example 23, 7-(2-fluorobenzyl)-3H-[1,2,3]triazolo [4,5-b]pyridin-5-amine] | 1 to 100
6 | Nc1cc(Cc2cccc(C(F)(F)F)c2)c2nn[nH]c2n1 [Example 26, 7-(3-(trifluorometh-yl)benzyl)-3H-[1,2,3]triazolo [4,5-b]pyridin-5-amine] | 1000 to 10000

Same assay, conditions: MPO peroxidation, potency range class; read-out: Amplex Red Assay IC50 value

Row | SMILES | IC50 [nM]
7 | Cc1ccc(Cc2cc(N)nc3[nH]nnc23)cc1 [Example 3, 7-(4-methylbenzyl)-3H-[1,2,3]triazolo [4,5-b]pyridin-5-amine] | 101 to 999
8 | COc1ccc(Cc2cc(N)nc3[nH]nnc23)cc1 [Example 4, 7-(4-methoxybenzyl)-3H-[1,2,3] triazolo[4,5-b]pyridin-5-amine] | 101 to 999
9 | N#Cc1ccc(F)c(Cc2cc(N)nc3[nH]nnc23)c1 [Example 8, 3-((5-amino-3H-[1,2,3]triazolo [4,5-b]pyridin-7-yl)methyl)-4-fluorobenzo-nitrile] | 1 to 100
10 | Cc1cccc(Cc2cc(N)nc3[nH]nnc23)c1F [Example 9, 7-(2-fluoro-3-methylbenzyl)-3H-[1,2,3]triazolo [4,5-b]pyridin-5-amine] | 1 to 100
11 | COC(=O)c1ccc(Cc2cc(N)nc3[nH]nnc23)c(OC)c1 [Example 10, methyl 4-((5-amino-3H-[1,2,3]triazolo[4,5-b]pyridin-7-yl)methyl)-3-methoxybenzo-ate] | 101 to 999
12 | CC(C)(C)OC(=O)N1CCCc2cc(Cc3cc(N)nc4[nH]nnc34)ccc21 [Example 12, tert-butyl 6-((5-amino-3H-[1,2,3]triazolo[4,5-b]pyridin-7-yl)methyl)-3,4-dihydroquinoline-1(2H)-carboxylate] | 101 to 999
13 | Cc1ccc(-c2cccc(Cc3cc(N)nc4[nH]nnc34)c2)cc1 [Example 15, 7-((4′-methyl-[1,1′-biphenyl]-3-yl)methyl)-3H-[1,2,3]triazolo [4,5-b] pyridin-5-amine] | 101 to 999
14 | Nc1cc(Cc2c(F)ccc(Cl)c2F)c2nn[nH]c2n1 [Example 18, 7-(3-chloro-2,6-difluorobenzyl)-3H-[1,2,3]triazolo [4,5-b]pyridin-5-amine] | 1 to 100
15 | Nc1cc(Cc2ccc3cc(F)ccc3c2)c2nn[nH]c2n1 [Example 19, 7-((6-fluoronaphthalen-2-yl)methyl)-3H-[1,2,3]triazolo [4,5-b]pyridin-5-amine] | 101 to 999
16 | Nc1cc(Cc2ccc3c(c2)OCO3)c2nn[nH]c2n1 [Example 20, 7-(benzo[d][1,3]dioxol-5-ylmethyl)-3H-[1,2,3]triazolo [4,5-b]pyridin-5-amine] | 101 to 999
17 | Nc1cc(Cc2ccc3c(c2)CCC3)c2nn[nH]c2n1 [Example 22, 7-((2,3-dihydro-1H-inden-5-yl)methyl)-3H-[1,2,3]triazolo [4,5-b]pyridin-5-amine] | 101 to 999
18 | Nc1cc(Cc2cccc(F)c2)c2nn[nH]c2n1 [Example 24, 7-(3-fluorobenzyl)-3H-[1,2,3]triazolo [4,5-b]pyridin-5-amine] | 1 to 100
19 | Nc1cc(Cc2cccc(Oc3ccc(F)cc3)c2)c2nn[nH]c2n1 [Example 27, 7-(3-(4-fluorophenoxy)benzyl)-3H-[1,2,3]triazolo [4,5-b]pyridin-5-amine] | 101 to 999
20 | Cc1nc(-c2ccc(Cc3cc(N)nc4[nH]nnc34)cc2)no1 [Example 32, 7-(4-(5-methyl-1,2,4-oxadiazol-3-yl)benzyl)-3H-[1,2,3]triazolo [4,5-b] pyridin-5-amine] | 101 to 999
21 | Nc1cc(Cc2c(F)cccc2F)c2nn[nH]c2n1 [Example 33, 7-(2,6-difluorobenzyl)-3H-[1,2,3] triazolo[4,5-b]pyridin-5-amine] | 1 to 100
22 | CC(C)(C)c1ccc(Cc2cc(N)nc3[nH]nnc23)cc1 [Example 35] | 101 to 999
23 | Nc1cc(Cc2ccc(OC(F)(F)F)cc2)c2nn[nH]c2n1 [Example 36, 7-(4-(trifluorometh-oxy)benzyl)-3H-[1,2,3]triazolo [4,5-b]pyridin-5-amine] | 1000 to 10000
24 | Nc1cc(Cc2ccccc2CS(=O)(=O)c2ccccc2)c2nn[nH]c2n1 [Example 38, 7-(2-((phenylsulfon-yl)methyl)benzyl)-3H-[1,2,3]triazolo [4,5-b]pyridin-5-amine] | 101 to 999
25 | Nc1cc(Cc2ccc(C(=O)c3ccccc3)cc2)c2nn[nH]c2n1 [Example 39, (4-((5-amino-3H-[1,2,3]triazolo [4,5-b]pyridin-7-yl)methyl)phenyl)(phenyl) methanone] | 101 to 999
26 | Nc1cc(Cc2ccc(-c3csnn3)cc2)c2nn[nH]c2n1 [Example 41, 7-(4-(1,2,3-thiadiazol-4-yl)benzyl)-3H-[1,2,3]triazolo [4,5-b]pyridin-5-amine] | 101 to 999
27 | Nc1cc(Cc2cc(F)ccc2F)c2nn[nH]c2n1 [Example 42, 7-(2,5-difluorobenzyl)-3H-[1,2,3] triazolo[4,5-b]pyridin-5-amine] | 1 to 100
28 | Nc1cc(Cc2cccc(Cl)c2F)c2nn[nH]c2n1 [Example 45, 7-(3-chloro-2-fluorobenzyl)-3H-[1,2,3] triazolo[4,5-b]pyridin-5-amine] | 1 to 100
29 | Nc1cc(Cc2cccc(C(=O)NCc3ccccc3)c2)c2nn[nH]c2n1 [Example 46, 3-((5-Amino-3H-[1,2,3]triazolo[4,5-b]pyridin-7-yl)methyl)-N-benzylbenzamide] | 101 to 999
30 | Nc1cc(Cc2cccc(OCc3ccccc3)c2)c2nn[nH]c2n1 [Example 49, 7-(3-(Benzyloxy)benzyl)-3H-[1,2,3]triazolo[4,5-b]pyridin-5-amine] | 101 to 999
31 | Nc1cc(Cc2cccc(-n3cccn3)c2)c2nn[nH]c2n1 [Example 52, 7-(3-(1H-pyrazol-1-yl)benzyl)-3H-[1,2,3]triazolo [4,5-b]pyridin-5-amine] | 101 to 999
32 | Cc1cc(C)n(-c2cccc(Cc3cc(N)nc4[nH]nnc34)c2)n1 [Example 53, 7-(3-(3,5-dimethyl-1H-pyrazol-1-yl)benzyl)-3H-[1,2,3]triazolo [4,5-b] pyridin-5-amine] | 101 to 999
33 | Cc1cccc(Cc2cc(N)nc3[nH]nnc23)n1 [Example 54, 7-((6-methylpyridin-2-yl)methyl)-3H-[1,2,3]triazolo [4,5-b]pyridin-5-amine] | 101 to 999
34 | COc1ccc(-c2cccc(Cc3cc(N)nc4[nH]nnc34)n2)cc1 [Example 55, 7-((6-(4-methoxyphenyl)pyridin-2-yl)methyl)-3H-[1,2,3]triazolo [4,5-b] pyridin-5-amine] | 101 to 999
35 | Nc1cc(Cc2cccc3c2ccn3Cc2ccccc2)c2nn[nH]c2n1 [Example 59, 7-((1-Benzyl-1H-indol-4-yl)methyl)-3H-[1,2,3]triazolo[4,5-b]pyridin-5-amine] | 1 to 100
